Measured values from a melting point compilation (Tetko et al.; mined from patent text by program, amines drawn as free bases though some values may be those of a salt).

Structure (SMILES)	melting point [°C]
C=CCc1cc(C(=O)OCC)ccc1OCC1(O)CN2CCC1CC2 (configuration not stated)	143 to 145
CC1COCc2nc3c(N)nc4cc(C=CC(=O)N(C)C)ccc4c3n21 (configuration not stated)	> 250
CCOc1cc2c(Cl)c(C#N)cnc2cc1F	165 to 166
COc1ccc(-c2cn3ccccc3n2)cc1	131 to 134
CCCCCCCCC(SCCCCCC)C(=O)Nc1c(OC)ccc2ncccc12 (configuration not stated)	88 to 89
NC(=O)c1cc(C(=O)O)c(O)c2ncc(Cc3ccc(F)cc3)cc12	265 to 266
Cc1cc(CCCOc2ccc(-c3noc(C(F)(F)F)n3)cc2)on1	68 to 69
Cc1ccc2c(c1C)N(c1ncnc3cnccc13)CC2	248
CCOC(=O)c1cn(C2CC2)c2c(CN3CCCC3)c(N3CCOCC3)c(F)cc2c1=O	227 to 232
CC(C)COC(=O)/C=C/C1NC(=O)CN1C(=O)OCc1ccccc1 (configuration not stated)	97 to 100
Cc1ccc(C(=O)N[C@H](C)C(N)=O)cc1-n1c(C)cc(OCc2ccccc2CNC(=O)Nc2cc(C(C)(C)C)nn2-c2ccc(O)c(Cl)c2)c(Cl)c1=O	192 to 193
O=C1Nc2ccc(-c3cc(F)cc(Br)c3)cc2C(C2CC2)(C2CC2)O1	228 to 229
COC(=O)C#CC(=O)c1cc(OC)ccc1OC	70 to 71
N=C(Nc1ccc2c(C3CN4CCC3CC4)c[nH]c2c1)c1cccs1 (configuration not stated)	144 to 146
Cc1c(N2CC[C@H](NC(=O)OC(C)(C)C)C2)c(F)c(N)c2c(=O)c(C(=O)O)cn(C3CC3)c12	135 to 136
CCOC(=O)c1cn(CC)c2nc(N3CCNCC3)c(F)cc2c1=O	150 to 151
Cc1cc(C)c(S(=O)(=O)N(C)O)c(C)c1	83 to 84

Structure (SMILES)	melting point [°C]
O=C(O)c1ccc2oc3c(c(=O)c2c1)CCCC3=Cc1ccccc1	284 to 286
COc1ccccc1N1CCN(C(=O)N(C)c2cc(C)c(C)nc2OC)CC1	131 to 132
CCOC(=O)CN(CP(=O)(ONC1CCCCC1)ONC1CCCCC1)C(=O)C(F)(F)F	118 to 123
CC(=O)OCCCCCCOc1ccccc1C(=O)Nc1ccc(C(=O)N2CCCCc3ccccc32)cc1	145 to 146
O=C(O)Cc1cccc(NC(=O)NCC(=O)N2[C@@H](c3ccccc3O)CC[C@H]2c2ccccc2)c1 (racemic)	165
O=C(NC1CCN(CCCOc2ccc3c4c(c(=O)oc3c2)CCCC4)CC1)c1ccccc1O	209 to 211
Cc1cc(N2NCCNC2=O)cc(Cl)c1C(O)c1ccc(Cl)cc1 (configuration not stated)	146 to 147
Clc1ccccc1Cn1ncnc1I	98
Cc1cccc2c1[C@@H]1CN(C)CC[C@@H]1CC2=O (relative stereo)	> 220
CC(C)c1ccc(S(=O)(=O)N2CCCC2c2ccc(F)cc2)cc1 (racemic)	77
Cc1cccc(-c2nc3ccc(Cl)cn3c2-c2ccnc(-c3ccc(CN4CCCC4)cc3)c2)n1	134
CCc1oc(-c2ccc(C(F)(F)F)cc2)cc1CCC(=O)O	94 to 95
CCOc1cc(C)ccc1C1CCN(CCCCC(=O)Nc2ccc(-c3ccc(C(F)(F)F)cc3)cc2)CC1	178
CC1=C(C(=O)O)C(c2cccc([N+](=O)[O-])c2)C(C(=O)OCCC#N)=C(C)N1 (configuration not stated)	131 to 132
CC1(c2ccccc2)SC(=S)N(Nc2ccccc2)C1=NOC(=O)Nc1ccc(Cl)c(Cl)c1 (configuration not stated)	95 to 96
COC1=N/C(=C\c2c[nH]c3ncc(Cl)cc23)C(=O)N1c1ccccc1	228

Now from value to compound:

melting point [°C]	Structure (SMILES)
101 to 102	CSc1cc(S(F)(F)(F)(F)F)ccc1C#N
83 to 84	CC(=O)NC(Cc1csc2ccccc12)C(=O)CCc1cc(C(F)(F)F)cc(C(F)(F)F)c1 (configuration not stated)
90	CCCCCCCCc1ccc(C(=O)NN)cc1
224 to 226	NC(=O)c1nnn(Cc2cccc(Cl)c2Cl)c1N
175	CCN(CC)C(=O)OCC1CN(C(=O)c2cc(OC)c(OC)c(OC)c2)CCN1C(=S)c1cc(OC)c(OC)c(OC)c1 (configuration not stated)
134	CC(C)(C)OC(=O)NC(Cc1ccc(C=O)cc1)C(=O)N1CCCC1 (configuration not stated)
213 to 215	CCOc1ccccc1-c1cc(OC)c(C(=O)N2Cc3cccn3Cc3ccccc32)cc1Cl
161 to 162	COc1cccc(C(=O)N2C(=O)CN(c3ccccc3)C2=O)c1
122 to 123	Cc1cccc2c1CCC(=O)C2(O)C(F)(F)F (configuration not stated)
190 to 193	Cn1cc(C2c3ccc(Cl)cc3C=Cc3sc(OCCn4ccnc4)nc32)c(=S)[nH]c1=O (configuration not stated)
80 to 81	CC[C@H](C)[C@H](NC(=O)[C@@H]1CCCN1CC(=O)[C@H](Cc1ccccc1)NC(=O)OCc1ccccc1)C(=O)NCC(C)C
201 to 202	CCCCCN(C(=O)Nc1ccc2c(c1)C(C)(C)CCC2(C)C)c1ccc(C(=O)O)cc1
80 to 82	CCOC(=O)CN1CCC(=C2c3ccc(Cl)cc3CCc3cccnc32)CC1
97 to 98	O=C(NCc1ccc([N+](=O)[O-])cc1)C(F)(F)F
65 to 68	COC(=O)c1ccc(OCCNC(=O)C2Cc3ccccc3N2S(=O)(=O)c2ccc(-c3ccc(F)cc3F)cc2)cc1F (configuration not stated)
94 to 95	COc1ccc2cc([C@H](C)C(=O)OCC(=O)N3CCC(CO[N+](=O)[O-])CC3)ccc2c1
72 to 75	CCCCC1c2sccc2CCN1CCCOc1ccc([N+](=O)[O-])cc1 (configuration not stated)

melting point [°C]	Structure (SMILES)
177 to 179	CN(CCc1ccc(NS(C)(=O)=O)cc1)Cc1cc2cc(NS(C)(=O)=O)ccc2o1
> 300	CCOC(=O)C1(O)COc2cc3ccc(=O)[nH]c3cc2C1=O (configuration not stated)
255 to 256	Cc1nc(-n2cnn(CC(=O)Nc3ccc(Cl)cc3)c2=O)sc1C(=O)NCc1cccnc1
173 to 175	O=C1CN(c2ccc(C(Br)C(Br)c3ccccc3)cc2OCc2ccccc2)S(=O)(=O)N1 (configuration not stated)
63 to 64	CC(=NOc1cccc(C(F)(F)F)c1)c1cc(Cl)ccc1NS(=O)(=O)C(F)(F)F
193 to 195	CC(C)C[C@H](NC(=O)c1ccc2c(c1)Nc1ccccc1S2)C(=O)N[C@H]1CCOC1OC(=O)c1ccccc1 (some centres not stated)
261 to 263	O=C1CCC(N2Cc3cc(CNC(=O)Nc4ccc(Cl)c(C(F)(F)F)c4)ccc3C2=O)C(=O)N1 (configuration not stated)
273 to 274	CCc1nc(-c2cccc(C(=O)O)c2)c(-c2ccnc(N)c2)s1
65 to 67	CCOC(=O)/C=C/c1ccc(OCCCOCCOC)cc1Oc1ncc(C(F)(F)F)cc1Cl
151 to 152	O=C1CCN(Cc2ccccc2[N+](=O)[O-])CC1C(c1ccc(F)cc1)c1ccc(F)cc1 (configuration not stated)
> 250	O=C1NCCn2c1nc1ccccc12
139 to 141	Cc1nc(-c2ccc(-c3cc(C(F)(F)F)nn3-c3ccc(S(C)(=O)=O)c(F)c3)cc2)cs1
244 to 245	CN1CCC(c2c[nH]c3ccc(NC(=O)c4ccc(F)s4)nc23)CC1
87 to 91	N#CCNC(=O)Cc1ccccc1
70 to 71	CCCCCCCCCCN(O)C(=O)NCC(=O)OCC
144 to 145	CC(C)(C)OC(=O)N1CCCCC1c1c[nH]c2ncccc12 (configuration not stated)
146 to 148	CCc1noc(C)c1-c1[nH]c2ccccc2c1C(=O)CCN(C)C
